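Each compound was tested at five concentrations against cells in 96-well plates for 48 hours. At the TGI there is no net growth.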 Where only a bound is given, the exact number is not on record here.

Some test systems named below: DMS 114 small cell lung; DMS 273 small cell lung; HOP-18 NSCLC; KM20L2 colon; RXF-631 renal; SNB-78 CNS.
What all share (test): growth of human tumour cells (NCI), 48 h

On to `COS(=O)c1cc(Cl)cc(Cl)c1O` (configuration not stated), for which, in the experiment on DMS 114 small cell lung, the TGI was more than 100 µM.

Turning to `CCN(CC)CCCNc1ccc2nnn3c4ccc(O)cc4c(=O)c1c23`, the TGI in the experiment on DMS 114 small cell lung turned out to be 25.1 µM; in the experiment on DMS 273 small cell lung, 17.9 µM; with HOP-18 NSCLC it was 29.8 µM; with KM20L2 colon it was 18.7 µM; with RXF-631 renal, 17.4 µM; with SNB-78 CNS, 32.5 µM.

Take `NC(=O)COc1ccccc1`: the TGI in the experiment with DMS 114 small cell lung, with DMS 273 small cell lung, with KM20L2 colon, with RXF-631 renal and in the experiment with SNB-78 CNS was more than 100 µM in each case.
